Measured values reported in US5169780A, “Enantiomeric enrichment and stereoselective synthesis of chiral amines” (Celgene Corporation, priority 1990, dated 1992).

Assays:
[1] = test system: omega-amino acid transaminase; assay: standardized omega-amino acid transaminase activity assay (1-phenylbutan-3-one formed from R,S-1-phenyl-3-aminobutane), B. megaterium enzyme; type: biochemical, Bacillus megaterium
Method: (§1) Enzyme Activity: Enzyme activity is expressed herein as units/mg. A unit of enzyme activity is defined as that which produces 1 micromole of ketone per minute. For uniformity, this is measured as micromoles of 1-phenylbutan-3-one formed from R,S-1-phenyl-3-aminobutane. The following standardized assay was utilized to measure the activity of the omega-amino acid transaminases set forth in the examples which follow.
(§2) A known volume of the enzyme preparation to be tested is incubated at 37° C. and pH 7 in a solution having the following composition:
(§3) A sample is removed and 20% by volume of 12% aqueous trichloroacetic acid are added. Precipitated protein is removed by centrifugation and the concentration of 1-phenylbutan-3-one in the supernatant is determined by liquid chromatography on a 100×8 mm 4 micron Novopak phenyl column eluting with 40% isopropanol and 0.09% phosphoric acid in water. Under these conditions, 1-phenylbutan-3-one elutes at 5.3 minutes.
(§4) Enzyme extracts from P. putida, B. megaterium, and P. aeruginosa obtained as above were assayed as above at pH 9 in 50 mM of Tris/HCl using 30 mM of R,S-1-phenyl-3-aminobutane, with and without 100 mM of sodium pyruvate. The following relative rates of conversion were observed.
(§5) The transaminase nature of the enzymatic action is apparent from the effect of "suicide inactivators" known to be specific for transaminases {see, for example, Burnett et al., J. Bio. Chem., 225, 428-432 (1980)}, the inactivator (0.5 mM) being preincubated with the assay medium before addition of R,S-1-phenyl-3-aminobutane.
(§6) The stereoselectivity of the omega-amino acid transaminase can be seen from the corresponding assay utilizing 15 mM of R-1-phenyl-3-aminobutane (with pyruvate).

[2] = target: T1, omega-amino acid transaminase (Pseudomonas aeruginosa, UniProt Q9I700); assay: standardized omega-amino acid transaminase activity assay, P. aeruginosa enzyme; type: biochemical
T1 construct: cell extracts containing the omega-amino acid transaminase then are obtained as therein described; host or cells: Pseudomonas aeruginosa ATCC 15692, cell extract
T1 sequence (Q9I700 1-448): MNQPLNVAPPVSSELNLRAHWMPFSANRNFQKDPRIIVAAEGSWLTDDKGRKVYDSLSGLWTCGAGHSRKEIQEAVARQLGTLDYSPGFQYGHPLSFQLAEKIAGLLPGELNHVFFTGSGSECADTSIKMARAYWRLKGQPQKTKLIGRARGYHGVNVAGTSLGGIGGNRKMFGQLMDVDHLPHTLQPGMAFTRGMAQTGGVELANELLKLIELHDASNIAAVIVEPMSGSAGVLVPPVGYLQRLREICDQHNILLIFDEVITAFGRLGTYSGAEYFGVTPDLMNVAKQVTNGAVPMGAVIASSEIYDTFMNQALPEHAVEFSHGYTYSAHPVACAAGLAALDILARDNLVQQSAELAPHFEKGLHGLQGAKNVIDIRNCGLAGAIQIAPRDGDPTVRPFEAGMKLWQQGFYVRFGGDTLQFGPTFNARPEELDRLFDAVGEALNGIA

[3] = test system: omega-amino acid transaminase; assay: standardized omega-amino acid transaminase activity assay, P. putida enzyme; type: biochemical, Pseudomonas putida
Method: as §1, §2, §3
Pseudomonas putida ATCC 39213 was cultured as described in Example 1 and an enzyme extract then was obtained as therein described. The specific activity of the omega-amino acid transaminase was 0.045 units/mg.
as §4, §5, §6

Bacillus megaterium = assay: induction of omega-amino acid transaminase production by addition of an amine to cultures; type: cell-based; conditions: 2 mM amine inducer, 30 to 40 hours; for Specific Activity (units/mg) Acetate: 40 mM acetate as carbon source; for Specific Activity (units/mg) Succinate: 40 mM succinate as carbon source
Method: as §1, §2, §3
Enzyme Recovery: Unless otherwise indicated, cells from culture are centrifuged for 10 minutes at 10,000 G, resuspended in 10 mM of phosphate buffer at pH 7 and 0.5 mM of pyridoxal phosphate, and ruptured by two passes through a chilled French press operating at 15,000 psi. Cell debris is removed by centrifugation for one hour at 10,000 G and the enzyme-containing supernatant collected.
The following procedure exemplifies the growth of microorganisms using ammonium as the sole nitrogen source and then inducing omega-amino acid transaminase production by the addition of an amine.
Bacillus megaterium was grown in 1 L cultures in the standard salt medium supplemented with 40 mM of the indicated carbon source, 5 mM of ammonium chloride, 80 mM of phosphate buffer, and 2 mM of the amine inducer indicated below. After 30 to 40 hours, the enzyme was collected and assayed as described above.

[4] = test system: omega-amino acid transaminase; assay: relative rates of conversion of different chiral amines by soluble enzymatic preparations; type: biochemical; conditions: for conversion to the nonchiral ketone by the transaminase: racemate subjected to the enzyme
Method: as §1, §2, §3
The following procedure exemplifies the relative rates of conversion, determined directly or calculated from kinetic data, of different chiral amines by soluble enzymatic preparations utilizing the assay described above but substituting the indicated chiral amine.

[5] = test system: omega-amino acid transaminase; assay: relative rates of conversion of 1-phenyl-3-aminobutane with different amino acceptors in place of pyruvate; type: biochemical; conditions: for Relative Rate of Conversion: substrate 1-phenyl-3-aminobutane
Method: as §1, §2, §3
The following procedure exemplifies the relative rates of conversion with 1-phenyl-3-aminobutane employing different amino acceptors in place of pyruvate in the assay described above.

[6] = solvent-to-aqueous phase partition coefficient of the ketone; type: physicochemical; conditions: heptane as organic solvent
Excerpt: The organic solvent will normally be one in which the ketone produced is soluble to a greater degree than in water. Solvents in which the ketone has a solvent-to-aqueous phase partition coefficient greater than one are suitable and those with coefficients greater than 8 are preferred. Examples of these are liquid hydrocarbons such as benzene or hexane, halogenated hydrocarbons such as chloroform, dichloromethane or, carbon tetrachloride, various fluorocarbons such as freon, long-chain alcohols such as octanol or decanol, esters such as ethyl acetate, or triglyceride oils, A solvent which typifies this is heptane which has a partition coefficient of ≈24. Supercritical fluids such as supercritical CO2 may also be used.

β-alanine transaminase = conditions: relative activities, Nakano et al. 1977; cited from earlier work
[7] = test system: -aminobutyrate transaminase; conditions: relative activities, Nakano et al. 1977; cited from earlier work
[8] = test system: omega-amino acid transaminase; assay: rate of immobilized enzyme reaction with added benzylacetone; type: biochemical, Bacillus megaterium; conditions: 80 mM R,S-1-phenyl-3-aminobutane, 60 mM glyoxylate, pH 6.5
Method: Immobilization: A 47 mm diameter […] (FMC Corp.) support matrix (0.4 g) was loaded into a housing (Millipore Sweenex) fitted with inlet and outlet tubing, a peristaltic pump, and reservoir. The matrix was washed sequentially, at ambient temperatures and a rate of 3 ml/min., with (1) 200 ml of 50 mM of phosphate buffer (pH 7) containing 0.5 mM pyridoxal phosphate over a period of 20 min., (2) 11 ml of a 4.6 mg/ml solution of enzyme obtained in the manner of Example 1 for 120 min., (3) 150 ml of 0.3 M sodium chloride in 50 mM of phosphate buffer (pH 7) containing 0.5 mM pyridoxal phosphate for 30 minutes, and (4) 200 ml of 50 mM of phosphate buffer (pH 7) containing 0.5 mM pyridoxal phosphate over a period of 20 min.
A solution of omega-amino acid transaminase was immobilized onto a matrix according to the methods in Example 16. Four independent 200 milliliter substrate solutions containing 80 mM of R,S-1-phenyl-3-aminobutane, 60 mM glyoxylate, 0.1 mM pyridoxal phospate, and 50 mM potassium phosphate (pH 6.5) were prepared. Benzylacetone in concentrations of 0.50 mM, 0.85 mM, 1.45 mM, and 2.55 mM, respectively, were added to the four substrate solutions and these were pumped through the immobilized enzyme matrix. The rate of the enzyme catalyzed reaction was measured in micromoles/minute.

[9] = stereoselectivity: 15 mM R-1-phenyl-3-aminobutane versus R,S-, with pyruvate
[10] = general statement of the description
[11] = inactivator 0.5 mM preincubated before addition of R,S-1-phenyl-3-aminobutane, None = 100

C[C@@H](N)CCc1ccccc1 [R-1-phenyl-3-aminobutane]
Relative Rate of Conversion B. megaterium [1, 9]: 15 | Relative Rate of Conversion P. aeruginosa [2, 9]: 4 | Relative Rate of Conversion P. putida [3, 9]: 3 | Specific Activity (units/mg) Acetate (Bacillus megaterium): 0.26 units/mg | Specific Activity (units/mg) Succinate (Bacillus megaterium): 0.21 units/mg | conversion to 1-phenylbutan-3-one as a factor of that of the S-form [4, 10]: ≤ 0.05

CC(=O)c1ccccc1 [acetophenone]
relative rates ([5]; as amino acceptor, concentration not given): ≤ 10

CCCCCCC(C)N (centres unmarked) [2-aminooctane]
Relative Rate of Conversion R-enantiomer ([4]; amine (R,S) 5 mM): 0 | Relative Rate of Conversion S-enantiomer ([4]; amine (R,S) 5 mM): 100

CC(N)CCCc1cccnc1 (centres unmarked) [5-(3-pyridyl)-2-aminopentane]
Relative Rate of Conversion R-enantiomer ([4]; amine (R,S) 5 mM): 0 | Relative Rate of Conversion S-enantiomer ([4]; amine (R,S) 5 mM): 100

CCCCCCC [heptane]
partition coefficient (ketone, solvent-to-aqueous phase) [6]: ≈ 24

CC(N)c1ccccc1 (racemic) [R,S-1-phenyl-1-aminoethane]
Specific Activity (units/mg) Acetate (Bacillus megaterium): 0.39 units/mg | Specific Activity (units/mg) Succinate (Bacillus megaterium): 0.27 units/mg | Relative Rate of Conversion R-enantiomer ([4]; amine (R,S) 10 mM): 0 | Relative Rate of Conversion S-enantiomer ([4]; amine (R,S) 10 mM): 100

O=C1CCCC1 [cyclopentanone]
Relative Rate of Conversion ([5]; amino acceptor 25 mM): 12

CC(N)c1cccc2ccccc12 (stereo not drawn) [1-(α-naphthyl)1-aminoethane]
Relative Rate of Conversion R-enantiomer ([4]; amine (R,S) 10 mM): 0 | Relative Rate of Conversion S-enantiomer ([4]; amine (R,S) 10 mM): 100

CCC(C)N (racemic) [R,S-2-aminobutane]
Specific Activity (units/mg) Acetate (Bacillus megaterium): 0.14 units/mg | Specific Activity (units/mg) Succinate (Bacillus megaterium): 0.13 units/mg

CCC=O [propionaldehyde]
Relative Rate of Conversion ([5]; amino acceptor 20 mM): 100

NCCc1ccc(O)cc1 [tyramine]
Specific Activity (units/mg) Acetate (Bacillus megaterium): 0.24 units/mg

CCCC=O [butyraldehyde]
Relative Rate of Conversion ([5]; amino acceptor 20 mM): 90

O=CC(=O)O [glyoxalate]
Relative Rate of Conversion ([5]; amino acceptor 20 mM): 50

CCC(C)=O [butan-2-one]
Relative Rate of Conversion ([5]; amino acceptor 20 mM): 20

C[C@@H](N)c1ccc(Br)cc1 [R-1-amino-1-(4-bromophenyl)ethane]
conversion to the nonchiral ketone by the transaminase [4, 10]: unchanged

CC[C@@H](C)N [R-2-aminobutane]
Specific Activity (units/mg) Acetate (Bacillus megaterium): 0.13 units/mg | Specific Activity (units/mg) Succinate (Bacillus megaterium): 0.06 units/mg

CC(N)CCc1ccccc1 (racemic) [R,S-1-phenyl-3-aminobutane]
Relative Rate of Conversion B. megaterium [1, 9]: 100 | Relative Rate of Conversion P. aeruginosa [2, 9]: 100 | Relative Rate of Conversion P. putida [3, 9]: 100 | Specific Activity (units/mg) Acetate (Bacillus megaterium): 0.33 units/mg | Specific Activity (units/mg) Gluconate (Bacillus megaterium; 40 mM gluconate as carbon source): 0.26 units/mg | Specific Activity (units/mg) Glucose (Bacillus megaterium; 40 mM glucose as carbon source): 0.62 units/mg | Specific Activity (units/mg) Succinate (Bacillus megaterium): 0.28 units/mg | Relative Rate of Conversion R-enantiomer ([4]; amine (R,S) 30 mM): 5 | Relative Rate of Conversion S-enantiomer ([4]; amine (R,S) 30 mM): 100

NCCCC(=O)O [-aminobutyrate]
activity of β-alanine transaminase on the substrate (β-alanine transaminase): 43 | activity of -aminobutyrate transaminase on the substrate [7]: 100

CCCC(C)=O [2-pentanone]
Relative Rate of Conversion ([5]; amino acceptor 25 mM): 33

CC(=O)CCc1ccccc1 [benzylacetone]
ENZYME ACTIVITY ([8]; benzylacetone 0.50 mM): 11.2 µM/min | ENZYME ACTIVITY ([8]; benzylacetone 0.85 mM): 9.5 µM/min | ENZYME ACTIVITY ([8]; benzylacetone 1.45 mM): 8.1 µM/min | ENZYME ACTIVITY ([8]; benzylacetone 2.55 mM): 6.1 µM/min

CC=O [acetaldehyde]
Relative Rate of Conversion ([5]; amino acceptor 20 mM): 50

O=Cc1ccccc1 [benzaldehyde]
Relative Rate of Conversion ([5]; amino acceptor 25 mM): 17

NCCC(=O)O [β-alanine]
activity of β-alanine transaminase on the substrate (β-alanine transaminase): 100 | activity of -aminobutyrate transaminase on the substrate [7]: 3

CC(N)c1ccc([N+](=O)[O-])cc1 (centres unmarked) [1-(4-nitrophenyl)-1-aminoethane]
Relative Rate of Conversion R-enantiomer ([4]; amine (R,S) 5 mM): 0 | Relative Rate of Conversion S-enantiomer ([4]; amine (R,S) 5 mM): 100

CC(N)Cc1ccccc1 (centres unmarked) [3-phenyl-2-aminopropane]
Relative Rate of Conversion R-enantiomer ([4]; amine (R,S) 10 mM): 100 | Relative Rate of Conversion S-enantiomer ([4]; amine (R,S) 10 mM): 0 | Relative Rate of Conversion R-enantiomer ([4]; amine (R,S) 15 mM): 7 | Relative Rate of Conversion S-enantiomer ([4]; amine (R,S) 15 mM): 100

O=C1CCCCC1 [cyclohexanone]
Relative Rate of Conversion ([5]; amino acceptor 25 mM): 23

NC1C=CC=C(C(=O)O)C1 (centres unmarked) [Gabaculine, reference compound]
Relative Rate of Conversion B. megaterium [1, 11]: 13 | Relative Rate of Conversion P. putida [3, 11]: 0

NC(CO)c1ccccc1 (centres unmarked) [phenylglycinol]
Relative Rate of Conversion R-enantiomer ([4]; amine (R,S) 10 mM): 100 | Relative Rate of Conversion S-enantiomer ([4]; amine (R,S) 10 mM): 0

CCCCCCC=O [heptaldehyde]
Relative Rate of Conversion ([5]; amino acceptor 25 mM): 80

C[C@@H](N)c1ccccc1 [R-1-phenyl-1-aminoethane]
Specific Activity (units/mg) Acetate (Bacillus megaterium): 0.36 units/mg | Specific Activity (units/mg) Succinate (Bacillus megaterium): 0.27 units/mg | conversion to the nonchiral ketone by the transaminase [4, 10]: unchanged

CCC(N)c1ccccc1 (centres unmarked) [1-phenyl-1-aminopropane]
Relative Rate of Conversion R-enantiomer ([4]; amine (R,S) 20 mM): 11 | Relative Rate of Conversion S-enantiomer ([4]; amine (R,S) 20 mM): 100

NO [Hydroxylamine, reference compound]
Relative Rate of Conversion B. megaterium [1, 11]: 10 | Relative Rate of Conversion P. aeruginosa [2, 11]: 0 | Relative Rate of Conversion P. putida [3, 11]: 3

CC(N)c1ccc(Br)cc1 (centres unmarked) [1-(4-bromophenyl)-1-aminoethane]
Relative Rate of Conversion R-enantiomer ([4]; amine (R,S) 30 mM): 0 | Relative Rate of Conversion S-enantiomer ([4]; amine (R,S) 30 mM): 100
